Measured values: PMC7283026 (Neuro-Oncology, 2020)

How the values were obtained:
human P-gp = human P-gp (Homo sapiens, UniProt P08183); format: in vitro ADME; settings: LLC-PK1
mouse P-gp = mouse P-gp (Mus musculus, UniProt P21447); format: in vitro ADME; settings: LLC-PK1
[1] = Kinetic lipid membrane binding assay; format: in vitro ADME, porcine; settings: pig, pH 7.4
P-gp = settings: cited from earlier work
[2] = rat plasma; from FDA pharmacology reviews; cited from earlier work
[3] = cited from earlier work; for Cave,ss, reported clinical concentration: patients, efficacious dose
[4] = Brain distribution study following i.v. bolus and i.v. infusion in rats; settings: rat; for δ brain concentration at SS / δ plasma concentration at SS: difference between the two time points, (SD)
[5] = Plasma protein binding by equilibrium dialysis, human plasma; format: in vitro ADME; settings: pH 7.5
[6] = Plasma protein binding by equilibrium dialysis, mouse plasma; format: in vitro ADME; settings: pH 7.5
[7] = Plasma protein binding, rat plasma; format: in vitro ADME; settings: pH 7.5
[8] = system: KM12-Luc intracranial tumor; experiment: Efficacy in KM12-Luc intracranial tumor xenograft mouse model; format: in vivo, athymic nu/nu mice; settings: 28 days
[9] = Plasma pharmacokinetics in KM12-Luc ITC tumor-bearing mice; format: in vivo, Balb/c nude mice; settings: for AUC(0-t): Balb/c nude, mouse, in vivo, po
[10] = Single oral-dose in vivo PK study of rats; settings: rat
BNN2 and BNN4 gliomas = settings: clinically relevant systemic exposures; cited from earlier work
TRKA/B/C = settings: read-out: IC50 against TRKA/B/C; cited from earlier work
[11] = system: breast cancer resistance protein (BCRP); settings: cited from earlier work
[12] = recommended human oral dose of 600 mg/kg q.d.

Sequence of mouse P-gp (P21447 whole entry): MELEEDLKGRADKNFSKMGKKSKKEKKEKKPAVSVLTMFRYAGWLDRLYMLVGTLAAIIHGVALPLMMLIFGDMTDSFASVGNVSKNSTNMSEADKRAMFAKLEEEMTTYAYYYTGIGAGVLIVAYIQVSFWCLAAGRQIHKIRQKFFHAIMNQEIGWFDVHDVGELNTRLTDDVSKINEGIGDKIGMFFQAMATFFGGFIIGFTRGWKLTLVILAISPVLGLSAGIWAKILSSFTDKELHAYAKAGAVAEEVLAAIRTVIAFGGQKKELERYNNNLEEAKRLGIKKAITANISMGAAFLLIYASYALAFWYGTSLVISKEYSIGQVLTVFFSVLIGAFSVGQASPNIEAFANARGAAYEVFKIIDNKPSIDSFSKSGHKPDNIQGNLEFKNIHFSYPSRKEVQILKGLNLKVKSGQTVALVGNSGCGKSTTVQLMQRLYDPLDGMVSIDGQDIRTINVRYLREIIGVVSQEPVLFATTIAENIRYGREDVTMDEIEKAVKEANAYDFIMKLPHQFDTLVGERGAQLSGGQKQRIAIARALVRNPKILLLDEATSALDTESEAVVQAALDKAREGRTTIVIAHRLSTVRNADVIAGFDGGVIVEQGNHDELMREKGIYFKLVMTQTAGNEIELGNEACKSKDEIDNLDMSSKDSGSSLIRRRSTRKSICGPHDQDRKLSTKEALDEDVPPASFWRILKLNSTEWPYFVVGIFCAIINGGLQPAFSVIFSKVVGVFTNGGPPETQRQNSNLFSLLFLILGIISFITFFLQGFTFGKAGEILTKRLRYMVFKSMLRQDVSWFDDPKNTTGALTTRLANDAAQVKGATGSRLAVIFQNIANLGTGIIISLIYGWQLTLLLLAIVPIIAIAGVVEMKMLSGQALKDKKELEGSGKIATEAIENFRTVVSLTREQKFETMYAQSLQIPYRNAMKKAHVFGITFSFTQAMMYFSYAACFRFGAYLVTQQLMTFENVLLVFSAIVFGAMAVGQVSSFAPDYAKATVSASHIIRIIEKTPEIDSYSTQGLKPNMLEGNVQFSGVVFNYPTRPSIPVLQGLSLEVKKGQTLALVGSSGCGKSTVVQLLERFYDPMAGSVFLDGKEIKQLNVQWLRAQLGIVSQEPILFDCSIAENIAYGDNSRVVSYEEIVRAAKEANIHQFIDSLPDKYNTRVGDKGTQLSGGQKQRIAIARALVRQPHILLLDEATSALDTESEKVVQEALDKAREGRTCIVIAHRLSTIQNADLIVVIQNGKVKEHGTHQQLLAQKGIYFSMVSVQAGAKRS
Sequence of human P-gp (P08183 whole entry): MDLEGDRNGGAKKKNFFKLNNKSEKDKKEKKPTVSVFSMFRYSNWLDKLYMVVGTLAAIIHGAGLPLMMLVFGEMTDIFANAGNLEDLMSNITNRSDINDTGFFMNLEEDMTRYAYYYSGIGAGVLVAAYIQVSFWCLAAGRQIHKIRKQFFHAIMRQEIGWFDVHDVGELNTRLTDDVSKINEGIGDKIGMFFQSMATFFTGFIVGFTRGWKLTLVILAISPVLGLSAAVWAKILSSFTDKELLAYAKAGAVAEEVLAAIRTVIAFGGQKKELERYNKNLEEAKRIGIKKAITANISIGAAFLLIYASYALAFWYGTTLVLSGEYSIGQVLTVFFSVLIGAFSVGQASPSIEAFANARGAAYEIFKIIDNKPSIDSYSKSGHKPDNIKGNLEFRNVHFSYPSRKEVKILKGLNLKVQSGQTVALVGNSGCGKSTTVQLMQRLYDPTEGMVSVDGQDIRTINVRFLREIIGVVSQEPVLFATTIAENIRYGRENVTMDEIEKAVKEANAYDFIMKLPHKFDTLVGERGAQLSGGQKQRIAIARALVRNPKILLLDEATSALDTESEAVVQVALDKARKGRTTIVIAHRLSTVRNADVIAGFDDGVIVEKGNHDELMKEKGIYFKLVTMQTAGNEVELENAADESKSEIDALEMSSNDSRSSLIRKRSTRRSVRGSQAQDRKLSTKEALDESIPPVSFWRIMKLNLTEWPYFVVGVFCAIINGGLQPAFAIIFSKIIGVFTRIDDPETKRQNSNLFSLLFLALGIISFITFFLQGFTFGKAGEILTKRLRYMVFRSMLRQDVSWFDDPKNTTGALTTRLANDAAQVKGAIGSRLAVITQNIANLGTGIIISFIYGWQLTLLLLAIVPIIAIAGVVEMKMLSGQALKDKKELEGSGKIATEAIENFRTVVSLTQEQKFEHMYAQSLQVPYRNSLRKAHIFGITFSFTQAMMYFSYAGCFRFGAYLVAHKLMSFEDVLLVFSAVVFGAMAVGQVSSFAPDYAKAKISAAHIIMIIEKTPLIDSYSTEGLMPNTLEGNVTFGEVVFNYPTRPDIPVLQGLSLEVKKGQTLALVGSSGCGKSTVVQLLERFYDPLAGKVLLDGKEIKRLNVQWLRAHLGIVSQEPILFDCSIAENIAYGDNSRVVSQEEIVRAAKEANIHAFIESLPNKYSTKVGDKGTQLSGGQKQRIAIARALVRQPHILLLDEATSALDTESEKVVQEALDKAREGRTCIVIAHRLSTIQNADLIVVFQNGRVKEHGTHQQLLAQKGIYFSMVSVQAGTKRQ

Structure (SMILES): C[C@@H](Oc1cc(-c2cnn(C3CCNCC3)c2)cnc1N)c1c(Cl)ccc(F)c1Cl [Crizotinib, crizotinib]
- Papp A→B at 3.5 h, 1 µM (human P-gp): 13.8 ± 0.3 nm/s
- Papp B→A at 3.5 h, 1 µM (human P-gp): 388 ± 17 nm/s
- Papp A→B at 3.5 h, 1 µM (mouse P-gp): 12 ± 1.5 nm/s
- Papp B→A at 3.5 h, 1 µM (mouse P-gp): 344 ± 16.8 nm/s
- half-life at 10 µM [1]: 7.4 min
- known substrate for P-gp (P-gp): known substrates for P-gp
- Fu in plasma [2]: 0.057
- Cave,ss, reported clinical concentration [3]: 0.874 µM
- Kp at 5 h ([4]; male, Sprague Dawley, in vivo): 0.041
- Kp at 6 h ([4]; male, Sprague Dawley, in vivo): 0.028
- δ brain concentration at SS [4]: 87 (12.1–131) nM
- δ plasma concentration at SS [4]: 12 (47.9–53.7) nM

Structure (SMILES): C[C@H]1O[C@@H](O[C@H]2[C@@H](O)C[C@H](O[C@H]3[C@@H](O)C[C@H](O[C@H]4CC[C@@]5(C)[C@H](CC[C@@H]6[C@@H]5C[C@@H](O)[C@]5(C)[C@@H](C7=CC(=O)OC7)CC[C@]65O)C4)O[C@@H]3C)O[C@@H]2C)C[C@H](O)[C@@H]1O [Digoxin, digoxin]
- Papp B→A at 3.5 h, 1 µM (human P-gp): 121 ± 7.3 nm/s
- efflux ratio at 3.5 h, 1 µM (human P-gp): 11
- Papp A→B at 3.5 h, 1 µM (mouse P-gp): 12.2 ± 1 nm/s
- Papp B→A at 3.5 h, 1 µM (mouse P-gp): 125 ± 2.8 nm/s
- efflux ratio at 3.5 h, 1 µM (mouse P-gp): 10

Structure (SMILES): CN1CCN(c2ccc(C(=O)Nc3n[nH]c4ccc(Cc5cc(F)cc(F)c5)cc34)c(NC3CCOCC3)c2)CC1 [Entrectinib, entrectinib]
- Papp A→B at 3.5 h, 1 µM (human P-gp): 13.5 ± 3.4 nm/s
- Papp B→A at 3.5 h, 1 µM (human P-gp): 197 ± 5 nm/s
- Papp A→B at 3.5 h, 1 µM (mouse P-gp): 9.9 ± 0.4 nm/s
- Papp B→A at 3.5 h, 1 µM (mouse P-gp): 255 ± 19 nm/s
- half-life at 10 µM [1]: 9.6 min
- fraction unbound at 5 h [5]: 0.0022 ± 0.0005
- fraction unbound at 5 h [6]: 0.0034 ± 0.0003
- fraction unbound at 5 h [7]: 0.0032 ± 0.0009
- Survival through day 28 ([8]; 1 mg/kg b.i.d. oral): 0%
- Survival through day 28 ([8]; 5 mg/kg b.i.d. oral): 11%
- Survival through day 28 ([8]; 10 mg/kg q.d. oral): 67%
- Survival through day 28 ([8]; 15 mg/kg b.i.d. oral): 100%
- Survival through day 28 ([8]; 30 mg/kg q.d. oral): 100%
- Survival through day 28 ([8]; 60 mg/kg b.i.d. oral): 100%
- Tolerability ([8]; all dose levels tested (1, 5, 15, 60 mg/kg b.i.d.; 10, 30 mg/kg q.d.)): well tolerated
- AUC(0-t) ([9]; 2 mg/kg/day): 1.3 µM·h
- AUC(0-t) ([9]; 10 mg/kg/day): 11.3 µM·h
- AUC(0-t) ([9]; 30 mg/kg): 24.5 to 54.8 µM·h
- AUC(0-t) ([9]; 30 mg/kg/day): 38.3 µM·h
- AUC(0-t) ([9]; 60 mg/kg/day): 45.3 µM·h
- AUC(0-t) ([9]; 120 mg/kg/day): 99.9 µM·h
- average plasma concentration (AUC24h/24 hours) ([9]; oral, daily dose of 30 mg/kg): ~ 1.6 µM
- Kp ([10]; brain / plasma, po, 20 mg/kg): 0.185
- concentration in the CSF ([10]; single oral dose 20 mg/kg, inferior to the LLOQ, data not shown): < 0.001 µM
- antitumor effect in intracranial NTRK1 fusion-positive glioma model (BNN2 and BNN4 gliomas): tumor growth inhibition and full survival benefit
- Cave,ss, reported clinical concentration [3]: 2 µM
- AUC24h at SS in patients [3, 12]: 48 µM·h
- estimated average plasma concentration in patients [3, 12]: approximately 2.0 µM
- Kp at 5 h ([4]; male, Sprague Dawley, in vivo, Measured CSF/Cu,p ratio, 5 h): 0.25
- Kp at 6 h ([4]; male, Sprague Dawley, in vivo, Measured CSF/Cu,p ratio, 6 h): 0.18
- δ brain concentration at SS [4]: 276 (71.2–186) nM
- δ plasma concentration at SS [4]: 140 (109–430) nM
- δ brain concentration at SS ([4]; listed as entrectinib): 276 nM
- δ plasma concentration at SS ([4]; listed as entrectinib): 140 nM

Structure (SMILES): O=C(Nc1cnn2ccc(N3CCC[C@@H]3c3cc(F)ccc3F)nc12)N1CC[C@H](O)C1 [Larotrectinib, larotrectinib]
- Papp A→B at 3.5 h, 1 µM (human P-gp): 18.5 nm/s
- Papp B→A at 3.5 h, 1 µM (human P-gp): 182 ± 37 nm/s
- efflux ratio at 3.5 h, 1 µM (human P-gp): 10
- Papp A→B at 3.5 h, 1 µM (mouse P-gp): 8.2 ± 0.7 nm/s
- Papp B→A at 3.5 h, 1 µM (mouse P-gp): 161 ± 7 nm/s
- efflux ratio at 3.5 h, 1 µM (mouse P-gp): 20
- half-life at 10 µM [1]: 6.2 min
- known substrate for P-gp (P-gp): known substrates for P-gp
- Fu in plasma [2]: 0.349
- IC50 (TRKA/B/C): 5 to 11 nM
- substrate of breast cancer resistance protein (BCRP) [11]: substrate
- Cave,ss, reported clinical concentration [3]: 0.423 µM
- Kp at 4 h ([4]; male, Sprague Dawley, in vivo): 0.027
- Kp at 5 h ([4]; male, Sprague Dawley, in vivo): 0.031
- δ brain concentration at SS [4]: 1.6 (3.74–5.60) nM
- δ plasma concentration at SS [4]: 2 (46.3–82.2) nM
